Source: patent US10590078B2, “Sodium channel blockers” (Daewoong Pharmaceutical Co., Ltd., priority 2015, dated 2020)
Read-outs that look alike come from different tables or passages of the source.

Target: human sodium ion channel 1.7 (hNav1.7) (Homo sapiens, UniProt Q15858)
Assay: Blocking effect against sodium ion channel Nav1.7, IonFlux16 auto patch clamp in hNav1.7 HEK293 cells
Format: cell-based
[1] = hNav1.7 HEK293 cells, inhibition of peak current after 50 seconds treatment, eight concentrations, read-out: IC50

Chain of human sodium ion channel 1.7 (hNav1.7) (Q15858 whole entry): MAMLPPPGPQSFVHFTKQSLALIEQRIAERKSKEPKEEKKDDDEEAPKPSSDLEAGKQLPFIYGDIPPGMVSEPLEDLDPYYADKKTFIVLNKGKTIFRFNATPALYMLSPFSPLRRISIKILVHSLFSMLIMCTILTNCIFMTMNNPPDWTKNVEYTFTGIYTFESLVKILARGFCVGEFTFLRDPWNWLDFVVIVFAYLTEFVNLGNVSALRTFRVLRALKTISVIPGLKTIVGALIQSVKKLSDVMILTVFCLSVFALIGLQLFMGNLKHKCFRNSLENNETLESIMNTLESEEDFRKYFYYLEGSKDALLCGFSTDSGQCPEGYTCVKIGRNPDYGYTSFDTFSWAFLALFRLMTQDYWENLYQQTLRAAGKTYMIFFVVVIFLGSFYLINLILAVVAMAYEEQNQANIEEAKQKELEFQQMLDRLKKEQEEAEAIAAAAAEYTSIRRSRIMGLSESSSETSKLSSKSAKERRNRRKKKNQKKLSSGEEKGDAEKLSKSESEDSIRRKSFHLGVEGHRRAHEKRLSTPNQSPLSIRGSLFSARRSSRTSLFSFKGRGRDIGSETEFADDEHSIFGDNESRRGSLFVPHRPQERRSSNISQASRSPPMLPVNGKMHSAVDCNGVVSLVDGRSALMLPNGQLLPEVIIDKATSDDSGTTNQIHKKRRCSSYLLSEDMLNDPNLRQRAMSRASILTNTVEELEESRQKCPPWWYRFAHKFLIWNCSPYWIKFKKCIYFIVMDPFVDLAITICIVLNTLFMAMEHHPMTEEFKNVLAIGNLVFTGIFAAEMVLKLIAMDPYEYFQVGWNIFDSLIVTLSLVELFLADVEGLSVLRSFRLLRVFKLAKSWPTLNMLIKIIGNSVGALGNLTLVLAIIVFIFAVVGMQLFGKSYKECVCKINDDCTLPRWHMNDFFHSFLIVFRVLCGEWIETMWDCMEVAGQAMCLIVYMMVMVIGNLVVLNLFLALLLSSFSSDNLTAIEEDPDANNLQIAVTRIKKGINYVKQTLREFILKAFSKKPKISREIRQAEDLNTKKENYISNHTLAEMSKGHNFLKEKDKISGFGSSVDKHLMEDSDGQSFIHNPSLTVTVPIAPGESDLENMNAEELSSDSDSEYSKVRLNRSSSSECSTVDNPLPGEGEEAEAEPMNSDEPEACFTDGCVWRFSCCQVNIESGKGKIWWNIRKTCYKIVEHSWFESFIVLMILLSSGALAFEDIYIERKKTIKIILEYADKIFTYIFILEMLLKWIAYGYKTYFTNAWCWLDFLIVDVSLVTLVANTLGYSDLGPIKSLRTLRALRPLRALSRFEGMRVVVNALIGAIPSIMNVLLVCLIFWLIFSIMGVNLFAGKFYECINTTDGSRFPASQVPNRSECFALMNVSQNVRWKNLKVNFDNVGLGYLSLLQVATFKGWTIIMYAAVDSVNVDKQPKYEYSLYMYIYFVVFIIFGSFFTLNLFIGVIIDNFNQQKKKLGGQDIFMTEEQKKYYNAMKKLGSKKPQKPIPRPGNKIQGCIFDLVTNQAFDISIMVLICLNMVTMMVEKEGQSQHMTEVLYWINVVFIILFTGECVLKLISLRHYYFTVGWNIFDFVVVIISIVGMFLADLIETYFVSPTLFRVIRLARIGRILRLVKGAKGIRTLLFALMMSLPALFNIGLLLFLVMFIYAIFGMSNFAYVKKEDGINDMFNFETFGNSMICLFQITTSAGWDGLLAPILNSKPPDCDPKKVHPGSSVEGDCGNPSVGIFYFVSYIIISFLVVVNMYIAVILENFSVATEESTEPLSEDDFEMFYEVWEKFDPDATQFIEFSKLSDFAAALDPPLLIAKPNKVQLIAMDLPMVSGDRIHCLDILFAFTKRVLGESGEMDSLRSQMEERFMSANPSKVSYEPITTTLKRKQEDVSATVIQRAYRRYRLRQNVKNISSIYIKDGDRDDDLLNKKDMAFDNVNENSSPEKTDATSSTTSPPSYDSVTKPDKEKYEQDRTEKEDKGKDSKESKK

Row | SMILES | IC50 [1] | IC50
1 | CS(=O)(=O)NC(=O)c1cc(Cl)c(-n2cc(-c3ccc(C(F)(F)F)cc3)c3cccnc32)cc1F [Example 218, 5-chloro-2-fluoro-N-(methylsulfonyl)-4-(3-(4-(trifluoromethyl)phenyl)-1H-pyrrolo[2,3-b]pyridin-1-yl)benzamide] | 290 nM | 
2 | CS(=O)(=O)NC(=O)c1cc(Cl)c(-n2nc(Cl)c3cc(F)ccc32)cc1F [Example 17, 5-chloro-4-(3-chloro-5-fluoro-1H-indazol-1-yl)-2-fluoro-N-(methylsulfonyl)benzamide] | 476 nM | 
3 | CS(=O)(=O)NC(=O)c1cc(Cl)c(-n2nc(Cl)c3cc(-c4ccccc4C#N)ccc32)cc1F [Example 237, 5-chloro-4-(3-chloro-5-(2-cyanophenyl)-1H-indazol-1-yl)-2-fluoro-N-(methylsulfonyl)benzamide] | > 10000 nM | 
4 | CS(=O)(=O)NC(=O)c1cc(Cl)c(-n2nc(Cl)c3cc(OCCc4ccccc4)ccc32)cc1F [Example 40, 5-chloro-4-(3-chloro-5-phenethoxy-1H-indazol-1-yl)-2-fluoro-N-(methylsulfonyl)benzamide] | 190 nM | 
5 | CS(=O)(=O)NC(=O)c1cc(Cl)c(-n2cc(-c3ccc(Cl)c(F)c3)c3cccnc32)cc1F [Example 223, 5-chloro-4-(3-(4-chloro-3-fluorophenyl)-1H-pyrrolo[2,3-b]pyridin-1-yl)-2-fluoro-N-(methylsulfonyl)benzamide] | 230 nM | 
6 | CS(=O)(=O)NC(=O)c1cc(Cl)c(-n2nc(Cl)c3cc(OCc4ccc5ccccc5c4)ccc32)cc1F [Example 35, 5-chloro-4-(3-chloro-5-(naphthalen-2-ylmethoxy)-1H-indazol-1-yl)-2-fluoro-N-(methylsulfonyl)benzamide] | 76 nM | 
7 | CS(=O)(=O)NC(=O)c1cc(Cl)c(-n2cc(-c3ccc(F)cc3)c3cc(Cl)cnc32)cc1F [Example 185, 5-chloro-4-(5-chloro-3-(4-fluorophenyl)-1H-pyrrolo[2,3-b]pyridin-1-yl)-2-fluoro-N-(methylsulfonyl)benzamide] | 80 nM | 
8 | CS(=O)(=O)NC(=O)c1cc(Cl)c(-n2cc(-c3ccc(Cl)cc3)c3cc(Cl)ccc32)cc1F [Example 272, 5-chloro-4-(5-chloro-3-(4-chlorophenyl)-1H-indol-1-yl)-2-fluoro-N-(methylsulfonyl)benzamide] | 370 nM | 
9 | CS(=O)(=O)NC(=O)c1cc(Cl)c(-n2cc(-c3ccc(C(F)(F)F)cc3)c3cc(Cl)cnc32)cc1F [Example 188, 5-chloro-4-(5-chloro-3-(4-(trifluoromethyl)phenyl)-1H-pyrrolo[2,3-b]pyridin-1-yl)-2-fluoro-N-(methylsulfonyl)benzamide] |  | 50 nM
10 | CS(=O)(=O)NC(=O)c1cc(Cl)c(-n2cc(-c3ccccc3Cl)c3cc(F)cnc32)cc1F [Example 207, 5-chloro-4-(3-(2-chlorophenyl)-5-fluoro-1H-pyrrolo[2,3-b]pyridin-1-yl)-2-fluoro-N-(methylsulfonyl)benzamide] | 140 nM | 
11 | CS(=O)(=O)NC(=O)c1cc(Cl)c(-n2cc(-c3ccc(C(F)(F)F)cc3)c3cc(F)cnc32)cc1F [Example 205, 5-chloro-2-fluoro-4-(5-fluoro-3-(4-(trifluoromethyl)phenyl)-1H-pyrrolo[2,3-b]pyridin-1-yl)-N-(methylsulfonyl)benzamide] | 50 nM | 
12 | CC(C)COc1ccc2c(c1)c(Cl)nn2-c1cc(F)c(C(=O)NS(C)(=O)=O)cc1Cl [Example 42, 5-chloro-4-(3-chloro-5-isobutoxy-1H-indazol-1-yl)-2-fluoro-N-(methylsulfonyl)benzamide] | 181 nM | 
13 | CS(=O)(=O)NC(=O)c1cc(Cl)c(-n2nc(Cl)c3cc(Cl)ccc32)cc1F [Example 9, 5-chloro-4-(3,5-dichloro-1H-indazol-1-yl)-2-fluoro-N-(methylsulfonyl)benzamide] | 117 nM | 
14 | CS(=O)(=O)NC(=O)c1cc(Cl)c(-n2nc(C3=CCNCC3)c3cc(Cl)ccc32)cc1F [Example 132, 5-chloro-4-(5-chloro-3-(1,2,3,6-tetrahydropyridin-4-yl)-1H-indazol-1-yl)-2-fluoro-N-(methylsulfonyl)benzamide] | > 10000 nM | 
15 | CS(=O)(=O)NC(=O)c1cc(Cl)c(-n2ncc3cc(Cl)ccc32)cc1F [Example 2, 5-chloro-4-(5-chloro-1H-indazol-1-yl)-2-fluoro-N-(methylsulfonyl)benzamide] | 5390 nM | 
16 | CS(=O)(=O)NC(=O)c1cc(Cl)c(-n2cc(-c3ccc(F)cc3Cl)c3cc(Cl)cnc32)cc1F [Example 197, 5-chloro-4-(5-chloro-3-(2-chloro-4-fluorophenyl)-1H-pyrrolo[2,3-b]pyridin-1-yl)-2-fluoro-N-(methylsulfonyl)benzamide] | 40 nM | 
17 | CS(=O)(=O)NC(=O)c1cc(Cl)c(-n2nc(Cl)c3cc(OCc4cccc(F)c4)ccc32)cc1F [Example 38, 5-chloro-4-(3-chloro-5-((3-fluorobenzyl)oxy)-1H-indazol-1-yl)-2-fluoro-N-(methylsulfonyl)benzamide] | 98 nM | 
18 | Cc1nn(-c2cc(F)c(C(=O)NS(C)(=O)=O)cc2Cl)c2ccc([N+](=O)[O-])cc12 [Example 14, 5-chloro-2-fluoro-4-(3-methyl-5-nitro-1H-indazol-1-yl)-N-(methylsulfonyl)benzamide] | 3000 to 10000 nM | 
19 | CS(=O)(=O)NC(=O)c1cc(Cl)c(-n2nc(-c3ccc(C(F)(F)F)cc3)c3ccccc32)cc1F [Example 178, 5-chloro-2-fluoro-N-(methylsulfonyl)-4-(3-(4-(trifluoromethyl)phenyl)-1H-indazol-1-yl)benzamide] | 330 nM | 

More lines, now with the values ahead:

Row | IC50 [1] | IC50 | SMILES
20 | 30 nM |  | CS(=O)(=O)NC(=O)c1cc(Cl)c(-n2nc(-c3ccc(Cl)cc3F)c3cc(F)ccc32)cc1F [Example 142, 5-chloro-4-(3-(4-chloro-2-fluorophenyl)-5-fluoro-1H-indazol-1-yl)-2-fluoro-N-(methylsulfonyl)benzamide]
21 | > 10000 nM |  | CS(=O)(=O)NC(=O)c1cc(Cl)c(-n2nc(-c3ccccc3C#N)c3cc(Cl)ccc32)cc1F [Example 60, 5-chloro-4-(5-chloro-3-(2-cyanophenyl)-1H-indazol-1-yl)-2-fluoro-N-(methylsulfonyl)benzamide]
22 | > 10000 nM |  | Cn1cc(-c2nn(-c3cc(F)c(C(=O)NS(C)(=O)=O)cc3Cl)c3ccc(Cl)cc23)cn1 [Example 88, 5-chloro-4-(5-chloro-3-(1-methyl-1H-pyrazol-4-yl)-1H-indazol-1-yl)-2-fluoro-N-(methylsulfonyl)benzamide]
23 | 560 nM |  | CS(=O)(=O)NC(=O)c1ccc(-n2nc(-c3cccc(F)c3)c3cc(Cl)ccc32)c(F)c1 [Example 125, 4-(5-chloro-3-(3-fluorophenyl)-1H-indazol-1-yl)-3-fluoro-N-(methylsulfonyl)benzamide]
24 | 640 nM |  | COc1ccccc1-c1nn(-c2ccc(C(=O)NS(C)(=O)=O)cc2F)c2ccc(Cl)cc12 [Example 117, 4-(5-chloro-3-(2-methoxyphenyl)-1H-indazol-1-yl)-3-fluoro-N-(methylsulfonyl)benzamide]
25 | 727 nM |  | CS(=O)(=O)NC(=O)c1cc(F)c(-n2nc(-c3ccc(F)cc3F)c3cc(Cl)ccc32)cc1Cl [Example 115, 2-chloro-4-(5-chloro-3-(2,4-difluorophenyl)-1H-indazol-1-yl)-5-fluoro-N-(methylsulfonyl)benzamide]
26 | 811 nM |  | COc1ccccc1-c1nn(-c2cc(Cl)c(C(=O)NS(C)(=O)=O)cc2F)c2ccc(Cl)cc12 [Example 107, 2-chloro-4-(5-chloro-3-(2-methoxyphenyl)-1H-indazol-1-yl)-5-fluoro-N-(methylsulfonyl)benzamide]
27 | 390 nM |  | CS(=O)(=O)NC(=O)c1cc(Cl)c(-n2nc(-c3ccc(F)cc3)c3ccccc32)cc1F [Example 179, 5-chloro-2-fluoro-4-(3-(4-fluorophenyl)-1H-indazol-1-yl)-N-(methylsulfonyl)benzamide]
28 | 60 nM |  | Cc1ccccc1-c1nn(-c2cc(F)c(C(=O)NS(C)(=O)=O)cc2Cl)c2ccc(F)cc12 [Example 147, 5-chloro-2-fluoro-4-(5-fluoro-3-(o-tolyl)-1H-indazol-1-yl)-N-(methylsulfonyl)benzamide]
29 | 33 nM |  | CS(=O)(=O)NC(=O)c1cc(Cl)c(-n2nc(-c3ccccc3F)c3cc(Cl)ccc32)cc1F [Example 53, 5-chloro-4-(5-chloro-3-(2-fluorophenyl)-1H-indazol-1-yl)-2-fluoro-N-(methylsulfonyl)benzamide]
30 |  | 20 nM | CS(=O)(=O)NC(=O)c1cc(Cl)c(-n2nc(-c3cc(F)c(F)c(F)c3)c3cc(Cl)ccc32)cc1F [Example 77, 5-chloro-4-(5-chloro-3-(3,4,5-trifluorophenyl)-1H-indazol-1-yl)-2-fluoro-N-(methylsulfonyl)benzamide]
31 | 3890 nM |  | CS(=O)(=O)NC(=O)c1ccc(-n2nc(-c3ccc(C#N)cc3)c3cc(Cl)ccc32)c(F)c1 [Example 120, 4-(5-chloro-3-(4-cyanophenyl)-1H-indazol-1-yl)-3-fluoro-N-(methylsulfonyl)benzamide]
32 | 48 nM |  | CS(=O)(=O)NC(=O)c1cc(Cl)c(-n2nc(-c3ccccc3Cl)c3cc(Cl)ccc32)cc1F [Example 71, 5-chloro-4-(5-chloro-3-(2-chlorophenyl)-1H-indazol-1-yl)-2-fluoro-N-(methylsulfonyl)benzamide]
33 | > 10000 nM |  | CS(=O)(=O)NC(=O)c1ccc(-n2nc(-c3cccc(C#N)c3)c3cc(Cl)ccc32)c(C#N)c1 [Example 95, 4-(5-chloro-3-(3-cyanophenyl)-1H-indazol-1-yl)-3-cyano-N-(methylsulfonyl)benzamide]
34 | 200 nM |  | CS(=O)(=O)NC(=O)c1cc(Cl)c(-n2nc(-c3ccc(F)cc3)c3cc(F)ccc32)cc1F [Example 153, 5-chloro-2-fluoro-4-(5-fluoro-3-(4-fluorophenyl)-1H-indazol-1-yl)-N-(methylsulfonyl)benzamide]
35 | 130 nM |  | CS(=O)(=O)NC(=O)c1cc(Cl)c(-n2nc(-c3c(F)cccc3Cl)c3cc(Cl)ccc32)cc1F [Example 78, 5-chloro-4-(5-chloro-3-(2-chloro-6-fluorophenyl)-1H-indazol-1-yl)-2-fluoro-N-(methylsulfonyl)benzamide]
36 | 1230 nM |  | CS(=O)(=O)NC(=O)c1ccc(-n2cc(-c3ccc(F)cc3)c3cc(Cl)ccc32)nc1 [Example 275, 6-(5-chloro-3-(4-fluorophenyl)-1H-indol-1-yl)-N-(methylsulfonyl)nicotinamide]
